# Reference: ChEMBL document CHEMBL3785084, “Rational modification of the lead molecule: Enhancement in the anticancer and dihydrofolate reductase inhibitory activity” (Bioorg Med Chem Lett, 2016)
# Columns and labels:
# [1] = target: T1, Dihydrofolate reductase (Homo sapiens, UniProt P00374); assay: Inhibition of human DHFR assessed as conversion of dihydrofolic acid to tetrahydrfolic acid by enzyme immunoassay in presence of NADPH
# T1 sequence (P00374 whole entry): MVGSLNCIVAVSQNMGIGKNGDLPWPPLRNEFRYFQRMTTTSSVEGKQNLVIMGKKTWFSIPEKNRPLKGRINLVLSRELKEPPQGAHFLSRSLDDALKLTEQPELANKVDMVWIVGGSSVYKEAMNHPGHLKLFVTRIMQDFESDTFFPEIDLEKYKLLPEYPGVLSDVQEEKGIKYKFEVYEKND
# [2] = tested on: SR; assay: Cytotoxicity against human SR cells assessed as cell growth at 10^-5 M after 48 hrs by sulforhodamine B assay; format: functional; conditions: read-out: Activity
# [3] = tested on: A549; assay: Cytotoxicity against human A549 cells assessed as cell growth at 10^-5 M after 48 hrs by sulforhodamine B assay; format: functional; conditions: A549, 48 h, read-out: Activity
# [4] = tested on: EKVX; assay: Cytotoxicity against human EKVX cells assessed as cell growth at 10^-5 M after 48 hrs by sulforhodamine B assay; format: functional; conditions: read-out: Activity
# [5] = Cytotoxicity against human HOP92 cells assessed as cell growth at 10^-5 M after 48 hrs by sulforhodamine B assay; format: functional; conditions: HOP-92, 48 h, read-out: Activity
# [6] = tested on: NCI-H226; assay: Cytotoxicity against human NCI-H226 cells assessed as cell growth at 10^-5 M after 48 hrs by sulforhodamine B assay; format: functional; conditions: NCI-H226, 48 h, read-out: Activity
# [7] = tested on: NCI-H23; assay: Cytotoxicity against human NCI-H23 cells assessed as cell growth at 10^-5 M after 48 hrs by sulforhodamine B assay; format: functional; conditions: NCI-H23, 48 h, read-out: Activity
# [8] = Cytotoxicity against human HCT116 cells assessed as cell growth at 10^-5 M after 48 hrs by sulforhodamine B assay; format: functional; conditions: HCT-116, 48 h, read-out: Activity
# [9] = tested on: HT-29; assay: Cytotoxicity against human HT-29 cells assessed as cell growth at 10^-5 M after 48 hrs by sulforhodamine B assay; format: functional; conditions: HT-29, 48 h, read-out: Activity
# [10] = tested on: KM12; assay: Cytotoxicity against human KM12 cells assessed as cell growth at 10^-5 M after 48 hrs by sulforhodamine B assay; format: functional; conditions: KM12, 48 h, read-out: Activity
# [11] = Cytotoxicity against human SW620 cells assessed as cell growth at 10^-5 M after 48 hrs by sulforhodamine B assay; format: functional; conditions: SW-620, 48 h, read-out: Activity
# [12] = Cytotoxicity against human SF268 cells assessed as cell growth at 10^-5 M after 48 hrs by sulforhodamine B assay; format: functional; conditions: SF-268, 48 h, read-out: Activity
# [13] = Cytotoxicity against human SF295 cells assessed as cell growth at 10^-5 M after 48 hrs by sulforhodamine B assay; format: functional; conditions: SF-295, 48 h, read-out: Activity
# [14] = Cytotoxicity against human SF539 cells assessed as cell growth at 10^-5 M after 48 hrs by sulforhodamine B assay; format: functional; conditions: SF-539, 48 h, read-out: Activity
# [15] = Cytotoxicity against human SNB75 cells assessed as cell growth at 10^-5 M after 48 hrs by sulforhodamine B assay; format: functional; conditions: SNB-75, 48 h, read-out: Activity
# [16] = Cytotoxicity against human LOXIMVI cells assessed as cell growth at 10^-5 M after 48 hrs by sulforhodamine B assay; format: functional; conditions: LOX IMVI, read-out: Activity
# [17] = tested on: Malme-3M; assay: Cytotoxicity against human MALME-3M cells assessed as cell growth at 10^-5 M after 48 hrs by sulforhodamine B assay; format: functional; conditions: read-out: Activity
# [18] = tested on: M14; assay: Cytotoxicity against human M14 cells assessed as cell growth at 10^-5 M after 48 hrs by sulforhodamine B assay; format: functional; conditions: M14, 48 h, read-out: Activity
# [19] = tested on: MDA-MB-435; assay: Cytotoxicity against human MDA-MB-435 cells assessed as cell growth at 10^-5 M after 48 hrs by sulforhodamine B assay; format: functional; conditions: MDA-MB-435, 48 h, read-out: Activity
# [20] = tested on: SK-MEL-2; assay: Cytotoxicity against human SK-MEL-2 cells assessed as cell growth at 10^-5 M after 48 hrs by sulforhodamine B assay; format: functional; conditions: SK-MEL-2, 48 h, read-out: Activity
# [21] = tested on: SK-MEL-28; assay: Cytotoxicity against human SK-MEL-28 cells assessed as cell growth at 10^-5 M after 48 hrs by sulforhodamine B assay; format: functional; conditions: SK-MEL-28, 48 h, read-out: Activity
# [22] = Cytotoxicity against human OVCAR3 cells assessed as cell growth at 10^-5 M after 48 hrs by sulforhodamine B assay; format: functional; conditions: OVCAR-3, 48 h, read-out: Activity
# [23] = Cytotoxicity against human OVCAR8 cells assessed as cell growth at 10^-5 M after 48 hrs by sulforhodamine B assay; format: functional; conditions: OVCAR-8, 48 h, read-out: Activity
# [24] = Cytotoxicity against human NCI-ADR-RES cells assessed as cell growth at 10^-5 M after 48 hrs by sulforhodamine B assay; format: functional; conditions: read-out: Activity
# [25] = Cytotoxicity against human SKOV3 cells assessed as cell growth at 10^-5 M after 48 hrs by sulforhodamine B assay; format: functional; conditions: SK-OV-3, 48 h, read-out: Activity
# [26] = tested on: 786-0; assay: Cytotoxicity against human 786-0 cells assessed as cell growth at 10^-5 M after 48 hrs by sulforhodamine B assay; format: functional; conditions: 786-0, 48 h, read-out: Activity
# [27] = Cytotoxicity against human Caki1 cells assessed as cell growth at 10^-5 M after 48 hrs by sulforhodamine B assay; format: functional; conditions: CAKI-1, 48 h, read-out: Activity
# [28] = Cytotoxicity against human RXF393 cells assessed as cell growth at 10^-5 M after 48 hrs by sulforhodamine B assay; format: functional; conditions: RXF 393, 48 h, read-out: Activity
# [29] = tested on: SN12C; assay: Cytotoxicity against human SN12C cells assessed as cell growth at 10^-5 M after 48 hrs by sulforhodamine B assay; format: functional; conditions: read-out: Activity
# [30] = Cytotoxicity against human TK10 cells assessed as cell growth at 10^-5 M after 48 hrs by sulforhodamine B assay; format: functional; conditions: TK-10, 48 h, read-out: Activity
# [31] = Cytotoxicity against human DU145 cells assessed as cell growth at 10^-5 M after 48 hrs by sulforhodamine B assay; format: functional; conditions: DU-145, 48 h, read-out: Activity
# [32] = tested on: MCF7; assay: Cytotoxicity against human MCF7 cells assessed as cell growth at 10^-5 M after 48 hrs by sulforhodamine B assay; format: functional; conditions: MCF7, 48 h, read-out: Activity
# [33] = tested on: MDA-MB-231; assay: Cytotoxicity against human MDA-MB-231 cells assessed as cell growth at 10^-5 M after 48 hrs by sulforhodamine B assay; format: functional; conditions: MDA-MB-231, 48 h, read-out: Activity
# [34] = Cytotoxicity against human Hs 578T cells assessed as cell growth at 10^-5 M after 48 hrs by sulforhodamine B assay; format: functional; conditions: read-out: Activity
# [35] = Cytotoxicity against human BT549 cells assessed as cell growth at 10^-5 M after 48 hrs by sulforhodamine B assay; format: functional; conditions: BT-549, 48 h, read-out: Activity
# [36] = tested on: MDA-MB-468; assay: Cytotoxicity against human MDA-MB-468 cells assessed as cell growth at 10^-5 M after 48 hrs by sulforhodamine B assay; format: functional; conditions: MDA-MB-468, 48 h, read-out: Activity
SMILES,growth at 10 µM [2],growth at 10 µM [3],growth at 10 µM [4],growth at 10 µM [7],growth at 10 µM [8],growth at 10 µM [9],growth at 10 µM [10],growth at 10 µM [11],growth at 10 µM [12],growth at 10 µM [13],growth at 10 µM [14],growth at 10 µM [15],growth at 10 µM [16],growth at 10 µM [17],growth at 10 µM [18],growth at 10 µM [19],growth at 10 µM [20],growth at 10 µM [21],growth at 10 µM [22],growth at 10 µM [23],other results
O=C1Nc2ccccc2/C1=C/c1cn(CC(O)Cn2cc(/C=C3\C(=O)Nc4ccccc43)c3ccccc32)c2ccccc12 (stereo not drawn),-2.94%,-11.6%,-62.3%,-67.3%,-64.2%,-20.2%,-80.9%,-60.4%,-62%,-84.7%,-77.7%,-95.9%,-84.5%,-76%,-81.4%,-87.6%,-57.6%,-85%,-85.1%,1.35%,IC50 [1]: 30 nM; Ki [1]: 5.83 nM; growth at 10 µM [5]: -73.9%; growth at 10 µM [6]: -74.8%; growth at 10 µM [24]: 31.8%; growth at 10 µM [25]: -38.2%; growth at 10 µM [26]: -70.8%; growth at 10 µM [27]: 9.83%; growth at 10 µM [28]: -90.8%; growth at 10 µM [29]: -53.6%; growth at 10 µM [30]: -15.1%; growth at 10 µM [31]: -90.5%; growth at 10 µM [32]: -67.5%; growth at 10 µM [33]: -80%; growth at 10 µM [34]: -22.2%; growth at 10 µM [35]: -55.3%; growth at 10 µM [36]: -84.8%
CN1C(=O)C(=Cc2cn(CC(O)Cn3cc(C=C4C(=O)N(C)C(=O)N(C)C4=O)c4ccccc43)c3ccccc23)C(=O)N(C)C1=O,94.3%,96.8%,91.7%,87.9%,80.3%,112%,94.3%,102%,92%,107%,103%,72.3%,97%,87.7%,89.7%,107%,118%,109%,95.2%,114%,IC50 [1]: 20000 nM; growth at 10 µM [5]: 80.4%; growth at 10 µM [6]: 86%; growth at 10 µM [24]: 105%; growth at 10 µM [25]: 85.2%; growth at 10 µM [26]: 100%; growth at 10 µM [27]: 90.8%; growth at 10 µM [28]: 104%; growth at 10 µM [29]: 99.1%; growth at 10 µM [30]: 117%; growth at 10 µM [31]: 106%; growth at 10 µM [32]: 91.8%; growth at 10 µM [33]: 78.3%; growth at 10 µM [34]: 97.3%; growth at 10 µM [35]: 92.3%; growth at 10 µM [36]: 19.4%
COc1cc(/C=C2\C(=O)Nc3ccccc32)cc(OC)c1O,-10.3%,67.9%,110%,66.4%,46.4%,75.7%,32.2%,31.5%,78.3%,60.6%,68.8%,23.1%,36.5%,118%,53.6%,-25.3%,50.4%,90.2%,46.9%,78.5%,IC50 [1]: 500 nM; growth at 10 µM [24]: 19.1%; growth at 10 µM [25]: 93.5%; growth at 10 µM [26]: 83.2%; growth at 10 µM [27]: 37.7%; growth at 10 µM [28]: 71.3%; growth at 10 µM [29]: 77%; growth at 10 µM [30]: 88.5%; growth at 10 µM [31]: 92.5%; growth at 10 µM [32]: 30.8%; growth at 10 µM [33]: 63.1%; growth at 10 µM [34]: 18.4%; growth at 10 µM [35]: 74.8%; growth at 10 µM [36]: 20.4%
CC1=NN(c2cccc(Cl)c2)C(=O)/C1=C\c1cn(CC(O)Cn2cc(/C=C3\C(=O)N(c4cccc(Cl)c4)N=C3C)c3ccccc32)c2ccccc12,96.3%,94.1%,101%,105%,99.3%,112%,100%,108%,104%,111%,94.2%,93.4%,102%,89.6%,101%,106%,115%,109%,102%,115%,growth at 10 µM [5]: 122%; growth at 10 µM [6]: 109%; growth at 10 µM [24]: 111%; growth at 10 µM [25]: 110%; growth at 10 µM [26]: 110%; growth at 10 µM [27]: 98.8%; growth at 10 µM [28]: 116%; growth at 10 µM [29]: 99.7%; growth at 10 µM [30]: 118%; growth at 10 µM [31]: 111%; growth at 10 µM [32]: 97.9%; growth at 10 µM [33]: 97.2%; growth at 10 µM [34]: 102%; growth at 10 µM [35]: 109%; growth at 10 µM [36]: 123%
O=C1NC(=O)C(=Cc2cn(CC(O)Cn3cc(C=C4C(=O)NC(=O)NC4=O)c4ccccc43)c3ccccc23)C(=O)N1,96.9%,85.9%,101%,94.7%,79.2%,88.3%,94%,102%,93.4%,103%,108%,90.2%,98%,97.7%,98.7%,109%,113%,111%,109%,117%,IC50 [1]: 5000 nM; growth at 10 µM [5]: 101%; growth at 10 µM [6]: 108%; growth at 10 µM [24]: 99.5%; growth at 10 µM [25]: 102%; growth at 10 µM [26]: 91.3%; growth at 10 µM [27]: 101%; growth at 10 µM [28]: 89.1%; growth at 10 µM [29]: 107%; growth at 10 µM [30]: 105%; growth at 10 µM [31]: 104%; growth at 10 µM [32]: 91.1%; growth at 10 µM [33]: 105%; growth at 10 µM [34]: 108%; growth at 10 µM [35]: 82.6%; growth at 10 µM [36]: 96.7%
